PubChem BioAssay AID2060888 (Molecular Pharmacology Branch, DTP, NCI, 2025)

Tested on: 695427-040-R-J1-PDC complex spheroid viability
Test: Anticancer human tumor 695427-040-R-J1-PDC patient-derived colon adenocarcinoma cell line growth inhibition [RAS]
Details: for IC50: curve of first compound; for viability, T/C: stronger effect = lower value
Procedure, shortened: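 Multi-cell-type spheroids: tumor cells plus HUVEC endothelial cells and mesenchymal stem cells. RAS-pathway inhibitors were combined with targeted agents, each dosed in half-log steps down from clinical Cmax, or from 10 microM when Cmax was unknown.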

[1] = second compound 0.000949 µM, first compound 0.0316 µM
[2] = second compound 0.000949 µM, first compound 0.1 µM
[3] = second compound 0.003 µM, first compound 0.0316 µM
[4] = second compound 0.003 µM, first compound 0.1 µM
[5] = second compound 0.00949 µM, first compound 0.0316 µM
[6] = second compound 0.00949 µM, first compound 0.1 µM
[7] = second compound 0.03 µM, first compound 0.0316 µM
[8] = second compound 0.03 µM, first compound 0.1 µM
[9] = second compound 0.0949 µM, first compound 0.0316 µM
[10] = second compound 0.0949 µM, first compound 0.1 µM
[11] = second compound 0.3 µM, first compound 0.0316 µM
[12] = second compound 0.3 µM, first compound 0.1 µM
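Also: viability read after seven days of drug exposure.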
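For viability, T/C in this document: 100% = DMSO vehicle control viability.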

## CC(C)n1nc(-c2ccc3oc(N)nc3c2)c2c(N)ncnc21 + CCn1c(-c2cccnc2C(C)OC)c2c3cc(ccc31)N1CCOC(CC(NC(=O)C(C(C)C)N(C)C(=O)C3(F)CCN(C(=O)C#CC(C)(C)N(C)C)CC3)C(=O)N3CCCC(N3)C(=O)OCC(C)(C)C2)C1
Second compound 0.000949 µM
  IC50: > 0.1 µM
Second compound 0.003 µM
  IC50: > 0.1 µM
Second compound 0.00949 µM
  IC50: > 0.1 µM
Second compound 0.03 µM
  IC50: > 0.1 µM
Second compound 0.0949 µM
  IC50: 0.0953 µM
Second compound 0.3 µM
  IC50: 0.0897 µM
Second compound 0.000949 µM, first compound 0.000316 µM
  viability, T/C: 107%
Second compound 0.000949 µM, first compound 0.001 µM
  viability, T/C: 120%
Second compound 0.000949 µM, first compound 0.00316 µM
  viability, T/C: 78.7%
Second compound 0.000949 µM, first compound 0.01 µM
  viability, T/C: 90.6%
[1]
  viability, T/C: 74.3%
[2]
  viability, T/C: 56.2%
Second compound 0.003 µM, first compound 0.000316 µM
  viability, T/C: 107%
Second compound 0.003 µM, first compound 0.001 µM
  viability, T/C: 84.3%
Second compound 0.003 µM, first compound 0.00316 µM
  viability, T/C: 98.6%
Second compound 0.003 µM, first compound 0.01 µM
  viability, T/C: 83.5%
[3]
  viability, T/C: 62.1%
[4]
  viability, T/C: 57.3%
Second compound 0.00949 µM, first compound 0.000316 µM
  viability, T/C: 110%
Second compound 0.00949 µM, first compound 0.001 µM
  viability, T/C: 89.7%
Second compound 0.00949 µM, first compound 0.00316 µM
  viability, T/C: 85.5%
Second compound 0.00949 µM, first compound 0.01 µM
  viability, T/C: 74.2%
[5]
  viability, T/C: 73.5%
[6]
  viability, T/C: 56.5%
Second compound 0.03 µM, first compound 0.000316 µM
  viability, T/C: 108%
Second compound 0.03 µM, first compound 0.001 µM
  viability, T/C: 80.2%
Second compound 0.03 µM, first compound 0.00316 µM
  viability, T/C: 66%
Second compound 0.03 µM, first compound 0.01 µM
  viability, T/C: 78.3%
[7]
  viability, T/C: 77.7%
[8]
  viability, T/C: 62.5%
Second compound 0.0949 µM, first compound 0.000316 µM
  viability, T/C: 86.1%
Second compound 0.0949 µM, first compound 0.001 µM
  viability, T/C: 79.2%
Second compound 0.0949 µM, first compound 0.00316 µM
  viability, T/C: 66.8%
Second compound 0.0949 µM, first compound 0.01 µM
  viability, T/C: 76.9%
[9]
  viability, T/C: 73.4%
[10]
  viability, T/C: 48.9%
Second compound 0.3 µM, first compound 0.000316 µM
  viability, T/C: 83.2%
Second compound 0.3 µM, first compound 0.001 µM
  viability, T/C: 104%
Second compound 0.3 µM, first compound 0.00316 µM
  viability, T/C: 81%
Second compound 0.3 µM, first compound 0.01 µM
  viability, T/C: 74.8%
[11]
  viability, T/C: 64.5%
[12]
  viability, T/C: 48%

## CC(Nc1ccc2c(c1)OCCn1cc(N3C(=O)OCC3C(F)F)nc1-2)C(N)=O (centres undefined) + CCn1c(-c2cccnc2C(C)OC)c2c3cc(ccc31)N1CCOC(CC(NC(=O)C(C(C)C)N(C)C(=O)C3(F)CCN(C(=O)C#CC(C)(C)N(C)C)CC3)C(=O)N3CCCC(N3)C(=O)OCC(C)(C)C2)C1
Second compound 0.000949 µM
  IC50: > 10 µM
Second compound 0.003 µM
  IC50: 8.53 µM
Second compound 0.00949 µM
  IC50: > 10 µM
Second compound 0.03 µM
  IC50: > 10 µM
Second compound 0.0949 µM
  IC50: > 10 µM
Second compound 0.3 µM
  IC50: > 10 µM
[1]
  viability, T/C: 80.8%
[2]
  viability, T/C: 68.8%
Second compound 0.000949 µM, first compound 0.316 µM
  viability, T/C: 68.7%
Second compound 0.000949 µM, first compound 1 µM
  viability, T/C: 34.9%
Second compound 0.000949 µM, first compound 3.16 µM
  viability, T/C: 80.1%
Second compound 0.000949 µM, first compound 10 µM
  viability, T/C: 39.4%
[3]
  viability, T/C: 95.4%
[4]
  viability, T/C: 79.6%
Second compound 0.003 µM, first compound 0.316 µM
  viability, T/C: 62.1%
Second compound 0.003 µM, first compound 1 µM
  viability, T/C: 50.1%
Second compound 0.003 µM, first compound 3.16 µM
  viability, T/C: 86%
Second compound 0.003 µM, first compound 10 µM
  viability, T/C: 37.5%
[5]
  viability, T/C: 103%
[6]
  viability, T/C: 84.1%
Second compound 0.00949 µM, first compound 0.316 µM
  viability, T/C: 72.3%
Second compound 0.00949 µM, first compound 1 µM
  viability, T/C: 62.9%
Second compound 0.00949 µM, first compound 3.16 µM
  viability, T/C: 81.9%
Second compound 0.00949 µM, first compound 10 µM
  viability, T/C: 42.3%
[7]
  viability, T/C: 91.8%
[8]
  viability, T/C: 70.1%
Second compound 0.03 µM, first compound 0.316 µM
  viability, T/C: 59.9%
Second compound 0.03 µM, first compound 1 µM
  viability, T/C: 45.3%
Second compound 0.03 µM, first compound 3.16 µM
  viability, T/C: 89.3%
Second compound 0.03 µM, first compound 10 µM
  viability, T/C: 37.8%
[9]
  viability, T/C: 71.8%
[10]
  viability, T/C: 67.5%
Second compound 0.0949 µM, first compound 0.316 µM
  viability, T/C: 52.6%
Second compound 0.0949 µM, first compound 1 µM
  viability, T/C: 50.4%
Second compound 0.0949 µM, first compound 3.16 µM
  viability, T/C: 100%
Second compound 0.0949 µM, first compound 10 µM
  viability, T/C: 40.9%
[11]
  viability, T/C: 69.6%
[12]
  viability, T/C: 52%
Second compound 0.3 µM, first compound 0.316 µM
  viability, T/C: 70.8%
Second compound 0.3 µM, first compound 1 µM
  viability, T/C: 52.8%
Second compound 0.3 µM, first compound 3.16 µM
  viability, T/C: 69.1%
Second compound 0.3 µM, first compound 10 µM
  viability, T/C: 42.1%
